The source of these data is the METLIN SMRT retention time set (Domingo-Almenara et al. 2019).

A short description of the series: gradient 5% acetonitrile 3 min, to 50% in 2 min, to 85% in 15 min, held 3 min, 100 µL/min. Conditions: column: Zorbax Extend-C18 2.1 x 50 mm; eluents: water / acetonitrile, 0.1% formic acid. The method in brief:
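The system's dead and dwell volumes were 40 μL and 900 μL, with a Zorbax Extend-C18 column (2.1 × 50 mm, 1.8 μm) run at 100 μL/min in water and acetonitrile containing 0.1% formic acid each. Pure standards were analyzed in mixtures of ~100 molecules by HPLC–quadrupole time-of-flight mass spectrometry in positive and negative ionization mode. Retention time was assigned from computationally picked, manually inspected adduct peaks.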
Take `O=S(=O)(c1ccc2c(c1)OCCO2)N1CCCn2nc(-c3cccnc3)cc2C1`: the RP-LC retention time was 621 s.

In turn, `O=C(NCCc1c[nH]c2ccccc12)C1CCCN(c2ccc(-n3ccnc3)nn2)C1` (centres undefined) returned an RP-LC retention time of 568 s. With `O=C(c1ccccn1)N1CCN(c2cc(-c3cccs3)[nH]n2)CC1` the figure was 648 s. With `CCOc1cc(CNCCc2c[nH]c3ccccc23)ccc1Oc1nnnn1-c1ccccc1` the figure was 780 s; with `COc1ccc(OC)c(CNC(=O)c2cn3ccccc3n2)c1`, 665 s; with `Cc1cccc(NC(=O)CN2C(=O)CCc3cc(S(=O)(=O)N4CCCCC4C)ccc32)c1C` (centres undefined), 930 s. In the case of `O=C(Cn1cnc2nc3c(cc2c1=O)CCCC3)Nc1ccccc1F` it was 703 s; in that of `CCCCN(C)Cc1nnn(-c2ccc(F)cc2)c1C`, 617 s; in that of `Cc1cc(C)c2c(n1)sc1c(N3CCC(C(=O)N4CCN(c5ccccn5)CC4)CC3)ncnc12`, 668 s. `CC(=O)Nc1cc(C(=O)NCC(C)C)c2ccc(C)nc2c1`: the RP-LC retention time was determined as 574 s. With `CCN(C(=O)C1CCC(C)CC1)c1nc(-c2ccccc2)cs1` (centres undefined) the figure was 838 s; with `O=C1N(CCNS(=O)(=O)c2cnc[nH]2)C(c2ccccc2)C12CCCCC2` (centres undefined), 740 s; with `Cc1ccc(CNC(=O)CCC2CCN(c3cc(NC4CC4)ncn3)CC2)o1`, 660 s.

Molecule `CCN1C(=O)C2(CCN(S(=O)(=O)c3c(C)noc3C)CC2)c2ccccc21` displayed an RP-LC retention time of 731 s.

As to `CCOC(=O)c1c(C)oc2nc(C)nc(NCCCc3ccccc3)c12`, the RP-LC retention time is 1280 s. In turn, `Cc1ccc(C)c(Nc2c(-c3ccccc3)nc3ncccn23)c1` had an RP-LC retention time of 815 s. In the case of `COc1ccc(CCN2CCC(CNS(=O)(=O)c3ccc4c(c3)CCCC(=O)N4)CC2)cc1` it was 628 s; in that of `Oc1ccc(-c2nc3ncccn3c2Nc2ccc(Cl)cc2)cc1`, 666 s. In the case of `CC(C)(C)c1ccc(OCCCC(=O)Nc2nc(-c3ccccc3)cs2)cc1` it was 1300 s; in that of `O=C(C1CCCCN1S(=O)(=O)c1ccc(F)cc1)N1CCc2ccccc21` (centres undefined), 1090 s.

As for `O=C(NCCCN1CCCCCC1)C1CCCN(c2nn3c(=O)c4c(nc3s2)CCCC4)C1` (centres undefined), the RP-LC retention time is 592 s. With `O=C(Cc1cccs1)N1CCN(Cc2nc(-c3ccc(Cl)cc3)cs2)CC1` the figure was 754 s; with `O=C(c1nc2ccccn2c1-c1ccc(Cl)cc1)N1CCCC1`, 712 s; with `O=C1CCCc2cc(S(=O)(=O)N3CCN(c4cccc(C(F)(F)F)c4)CC3)ccc2N1`, 980 s.

As for `COCCn1c(C2CCN(C(=O)c3cccc(Cl)c3)C2)nc2ccncc21` (centres undefined), the RP-LC retention time worked out at 561 s. In the case of `CC1=C(C(=O)N(CC(=O)NCc2ccc(C)cc2)c2ccc(Cl)cc2)SCCO1` it was 1010 s; in that of `COc1ccc(NC(=O)N2CCC3(CC2)NC(=O)c2ccccc2N3C)c(C)c1`, 781 s; in that of `CC1Oc2ccc(-c3csc(NC(=O)c4ccncc4)n3)cc2N(C)C1=O` (centres undefined), 766 s.

`O=C(NCc1ccc(F)cc1)c1nnc(-c2ccc(S(=O)(=O)N3CCOCC3)cc2)o1`: the RP-LC retention time was 910 s. With `O=C(CCc1nc(-c2ccc(N3CCCC3)cc2)no1)N1CCN(c2ccc(Cl)cc2)CC1` the figure was 1240 s; with `COCCN1CCC(N2CCCN(C(=O)c3ccc(F)c(Cl)c3)CC2)C1=O` (centres undefined), 573 s. With `N#CCc1ccc(NC(=O)C2CCCN(S(=O)(=O)Cc3ccc(Cl)cc3)C2)cc1` (centres undefined) the figure was 905 s. With `CCOC(=O)CNC(=O)NCc1cccn1Cc1ccccc1` the figure was 793 s.

`CCc1nncn1C1CCN(S(=O)(=O)c2ccc(F)cc2)CC1`: the RP-LC retention time was determined as 676 s. In the case of `Cc1ccc(-c2nc(C)cc(SCC(=O)Nc3cc(C)ccc3C)n2)cc1` it was 1210 s; in that of `O=C(Cn1c(=O)c2cccn2c2ccccc21)Nc1cccc(Cl)c1`, 904 s. For `COCCn1c(C)c(C)c(S(=O)(=O)c2ccc(C)cc2)c1NC(=O)C1CCCO1` (centres undefined), the RP-LC retention time amounted to 859 s. In the case of `COC(=O)c1ccc(CSc2nc3ccccc3[nH]2)cc1` it was 648 s; in that of `Cc1ccc(-c2cc3n(n2)CCCN(C(=O)c2ccoc2)C3)cc1`, 810 s. With `CCc1nc(-c2csc(S(=O)(=O)N3CCCC(C(=O)Nc4cccc(C#N)c4)C3)c2)no1` (centres undefined) the figure was 1010 s; with `Cc1c(S(=O)(=O)N2CCCC(C)C2)c(C)n(C)c1C(=O)Nc1ccccc1F` (centres undefined), 895 s. In the case of `Cc1nc2c(sc3nc(-c4ccccc4)ccc32)c(=O)n1CC(=O)Nc1ccc(C(C)C)cc1` it was 1200 s. For `O=C(NCc1ccc(F)cc1)NCc1cccn1Cc1cccc(F)c1`, the RP-LC retention time was determined as 680 s. With `CCCc1noc(-c2ccc3nnc(CC(=O)Nc4ccc(C)cc4F)n3c2)n1` the figure was 940 s; with `Cc1ccc(CNC(=O)C2(C)Cn3cnc(C(=O)NCCc4ccccc4)c3C(=O)N2C2CC2)cc1` (centres undefined), 816 s; with `O=C(CCCS(=O)(=O)c1ccc(F)cc1)Nc1ncnc2sccc12`, 649 s.

`CC(=O)N(Cc1nn(C)c2c1CN(S(=O)(=O)c1cc(F)ccc1F)CC2)c1ccccc1` came in with an RP-LC retention time of 800 s. In the case of `CCOc1ccc(C(=O)N2CCC(n3c(-c4ccoc4)nc4cccnc43)C2)cc1` (centres undefined) it was 756 s; in that of `Cn1cc(CC(=O)NCc2nc(-c3ccccc3)no2)c2ccccc21`, 837 s. With `Cn1ncc2c3ccccc3n(CC(=O)N3CCN(C(=O)c4ccco4)CC3)c2c1=O` the figure was 668 s; with `COc1cc(OC)c(NC(=O)Cn2cc3c(n2)CCC(C)C3)cc1Cl` (centres undefined), 999 s.

Take `O=C(NCc1cccs1)c1ccc2c(c1)N(C(=O)c1ccc(F)cc1)CC2`: the RP-LC retention time turned out to be 880 s. In the case of `CC(C)(C)c1noc(-c2cccnc2-n2cnc(C(=O)NC3CCCCC3)c2)n1` it was 771 s; in that of `CCn1nnc2cc(-c3noc(C4CC(=O)N(c5ccc(C)c(C)c5)C4)n3)ccc21` (centres undefined), 953 s.

Turning to `CCOc1ccccc1NC(=O)c1cncc(NS(=O)(=O)c2ccc(OC)cc2)c1`, the RP-LC retention time came out at 798 s. In the case of `COC(=O)c1ccc(C(=O)NCC2(c3cccs3)CCCC2)cc1` it was 971 s; in that of `Cc1cc(C)cc(-c2nnc(Cc3nc(-c4cccc(Br)c4)no3)o2)c1`, 1240 s; in that of `Cc1ccc(Nc2c(-c3ccc(O)cc3)nc3c(C)cccn23)cc1`, 676 s. In the case of `Cc1ccc(NC(=O)C2CCN(C(=O)c3ncn4c3COC(c3ccc(F)cc3)C4)CC2)cc1C` (centres undefined) it was 848 s; in that of `O=C(Nc1ccccc1)C1CCc2sc(C(=O)N3CCOCC3)cc2C1` (centres undefined), 708 s; in that of `CS(=O)(=O)N1CCC(C(=O)NCc2csc(-c3cccs3)n2)CC1`, 694 s. In the case of `CC(C)CNC(=O)N1CCN(c2nc3ccccc3n(Cc3ccccc3)c2=O)CC1` it was 986 s; in that of `Cc1cc(-c2nnc(C3CCC3)o2)c(C)n1CC(=O)Nc1ccccc1F`, 887 s.

Turning to `CO[C@H]1CN(C(C)C)[C@H]1C1CCN(C(=O)C2CC=CC2)CC1`, the RP-LC retention time was found to be 593 s.

Molecule `Cc1ccc(C)c(NC(=O)Cn2cccc2-c2nnc(-c3ccccc3)o2)c1` yielded an RP-LC retention time of 1020 s. In the case of `O=C(NCc1ccnc(N2CCSCC2)c1)Nc1ccccc1Cl`, the RP-LC retention time worked out at 643 s. In the case of `Cc1ccccc1-n1c(=O)c2sccc2n(Cc2nc(-c3ccc(C(C)(C)C)cc3)no2)c1=O` it was 1080 s. With `Nc1cc(C2CCN(C(=O)c3ccccc3Br)CC2)no1` the figure was 676 s; with `COc1ccccc1-c1nnc(-c2ccc(C)c(S(=O)(=O)N3CCCC3)c2)o1`, 966 s. Take `COc1ccc(CNC(=O)Cn2cnc3nc(N4CCC(C(=O)NC5CC5)CC4)sc3c2=O)cc1`: the RP-LC retention time amounted to 666 s. `Cc1ccc(NC(=O)N2CCCC2c2cc(C)no2)cc1` (centres undefined): the RP-LC retention time worked out at 782 s. For the molecule `COc1ccc(C)cc1NC(=O)c1cc(C(C)C)n2nccc2n1`, the RP-LC retention time was determined as 1270 s. In the case of `CCCNC(=O)C1CCCN(c2ccc(SCC(=O)Nc3c(F)cccc3F)nn2)C1` (centres undefined) it was 628 s. On to `Cc1ccc(-c2nnc(Cc3nc(C(C)C)no3)o2)cc1C`, for which the RP-LC retention time came to 967 s. With `Cc1ccc(-c2nnc(-c3nc(NCc4ccccn4)c4ccccc4n3)o2)cc1` the figure was 703 s; with `C=CCn1ccc2c(OCC(=O)NC3CCCC3)cccc2c1=O`, 788 s. `O=c1n(Cc2nc(-c3ccc(F)c(Br)c3)no2)nc2ccc(-c3ccccc3)nn12` returned an RP-LC retention time of 1010 s. With `O=c1c2sccc2n(Cc2nc(-c3ccc(Cl)cc3)no2)c(=O)n1-c1ccccc1F` the figure was 1070 s; with `CCCCOc1ccc(S(=O)(=O)N2CCN(c3cc(C)nc(NC4CCCCC4)n3)CC2)cc1`, 996 s.
